Series [1] deals with T cells.
Series [2] relates to T cells. Description: T cell viability after 16 hours pre-incubation with CHP components. The note with it: pretreatment of T cells, 16 hours (data not shown).
For series [3], the system named is CD20-expressing Raji-luc tumor cells. The note with it: NOD-SCID mice injected with Raji-luc tumor cells and PBMCs; even in presence of excess IgG1-RTX-FEAR; cited from earlier work.
The subject of series [4] is primary DLBCL and follicular lymphoma patient biopsies. As to conditions: cited from earlier work.
Series [5] relates to relapsed or refractory (R/R) B-NHL, highly refractory large B-cell lymphoma. The note with it: monotherapy, n=157; cited from earlier work.

Where two headings read alike, the source gives them in different places.

For `O=P1(N(CCCl)CCCl)NCCCO1` (stereo not drawn) [cyclophosphamide, 2H-1,3,2-Oxazaphosphorin-2-amine, N,N-bis(2-chloroethyl)tetrahydro-, 2-oxide], in the series on T cells [1], the T cell viability entry is recorded as “did not impact T cell viability”.
For the compound `COc1cccc2c1C(=O)c1c(O)c3c(c(O)c1C2=O)C[C@@](O)(C(=O)CO)C[C@@H]3O[C@H]1C[C@H](N)[C@H](O)[C@H](C)O1` [doxorubicin], in the series on T cells [2], the T cell viability result is “led to a reduction in T cell viability”.
For epcoritamab, the tumor growth result in series [3] was “effectively reduce tumor growth”. The T-cell-mediated cytotoxicity result in series [4] (biopsies taken a certain amount of time after administration of an anti-CD20 antibody) is recorded as “induced T-cell-mediated cytotoxicity”. Besides, the tumor cell kill entry in series [4] (biopsy taken 2 weeks after administering anti-CD20 antibody) is given as “up to 40%”. Besides, in series [5], the “complete response (CR) rate” value was 39%, the “median duration of response (DOR)” value is 12 months, the “overall response rate (ORR)” value is listed as 63% and the safety profile entry is “manageable safety profile”.

The values above are taken from patent publication US20230303693A1, “BISPECIFIC ANTIBODY AGAINST CD3 AND CD20 IN COMBINATION THERAPY FOR TREATING DIFFUSE LARGE B-CELL LYMPHOMA” (GENMAB A/S, priority 2022, published 2023).
